17 compounds from patent US20260285888A1, “HETEROCYCLIC COMPOUND AND USE THEREOF” (OTSUKA PHARMACEUTICAL CO., LTD., priority 2023, published 2026) can be followed below.

The nature of data set [1]: in vitro. It counts as cell-based, human. The following applies: human, differentiated hl-60 cells, 300 μmol/L, about 24 hours, PMA-differentiated HL-60 cells, LDH; no-treatment 0%, cell lysis buffer 100%; read-out: cytotoxicity (%) Evaluation compound results. The method, then:
An HL-60 cell line (human acute promyelocytic leukemia cells) was successively cultured in RPMI 1640 containing 20% fetal bovine serum (FBS) at 37° C. in 95% atmosphere/5% CO2. Before evaluation, the cells were pre-cultured for about 72 hours in the presence of 10 nM phorbol 12-myristate 13-acetate (PMA) to induce macrophage-like differentiation.
Evaluation compounds were dissolved in DMSO to obtain 30 mmol/L solutions (or suspensions). Each DMSO solution was diluted 100-fold with RPMI 1640 containing 2% FBS (final concentration of the compound: 300 μmol/L) to obtain a treatment solution. The culture supernatant of the differentiated HL-60 cells was removed, and each treatment solution was added and cultured for about 24 hours, followed by cytotoxicity evaluation.
The activity of lactate dehydrogenase (LDH) was measured in the treatment solutions exposed to the cells for about 24 hours by using a commercial kit (Cytotoxicity LDH Assay Kit-WST, Dojindo Laboratories) and a plate reader (Tecan Infinite M1000). The obtained measurement values were used to calculate cytotoxicity (%) as comparison values for each evaluation compound-treated group, with the no-treatment group taken as 0% and the cell lysis buffer-treated group taken as 100%. The test was conducted in triplicate in three wells each, and the average values were used as adopted values.

Data set [2] can be described thus: Study for confirmation of conversion to brexpiprazole in a buffer (stability of the evaluation compounds). The following applies: in buffer, average of duplicate; for Concentration of brexpiprazole formed: 60-minute reaction sample; for Concentration of evaluation compound decreased: decrease in 60-minute vs 0-minute reaction sample. It counts as physicochemical. The essentials:
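Compounds (final 1 μmol/L, from 100 μmol/L working solutions) incubated in buffer at 37° C. for 0 or 60 min, in duplicate, after 3 min pre-incubation of the reaction solution. Reactions stopped with acetonitrile/isopropanol (4:1) containing internal standards; compound and formed brexpiprazole quantified against 0.01–1 μmol/L calibration samples.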

As for `CCOC(=O)C[C@@H](OP(=O)([O-])OC[N+]1(CCCCOc2ccc3ccc(=O)[nH]c3c2)CCN(c2cccc3sccc23)CC1)C(=O)OCC` [EX 111, (R)-(4-(benzo[b]thiophen-4-yl)-1-(4-((2-oxo-1,2-dihydroquinolin-7-yl)oxy)butyl)piperazin-1-ium-1-yl)methyl (1,4-diethoxy-1,4-dioxobutan-2-yl) phosphate], the cytotoxicity at 24 h, 300 µM in data set [1] was determined as 0%. In data set [2], the “Concentration of brexpiprazole formed” value is 0 nM and the “Concentration of evaluation compound decreased” value came to 20 nM.
In the same order, the values of `O=C(OCCCOC1CCCCO1)OCOP(=O)([O-])OC[N+]1(CCCCOc2ccc3ccc(=O)[nH]c3c2)CCN(c2cccc3sccc23)CC1` (stereo not drawn) [EX 140, (4-(benzo[b]thiophen-4-yl)-1-(4-((2-oxo-1,2-dihydroquinolin-7-yl)oxy)butyl)piperazin-1-ium-1-yl)methyl ((((3-((tetrahydro-2H-pyran-2-yl)oxy)propoxy)carbonyl)oxy)methyl) phosphate] are 9%, 0 nM and -20 nM.
The matching figures for `COCCC(=O)OCOP(=O)([O-])OC[N+]1(CCCCOc2ccc3ccc(=O)[nH]c3c2)CCN(c2cccc3sccc23)CC1` [EX 28, (4-(benzo[b]thiophen-4-yl)-1-(4-((2-oxo-1,2-dihydroquinolin-7-yl)oxy)butyl)piperazin-1-ium-1-yl)methyl (((3-methoxypropanoyl)oxy)methyl) phosphate]: -8%, -10 nM and -70 nM.
In the same order, the values of `CCOCCOC(=O)OCOP(=O)([O-])OC[N+]1(CCCCOc2ccc3ccc(=O)[nH]c3c2)CCN(c2cccc3sccc23)CC1` [EX 132, (4-(benzo[b]thiophen-4-yl)-1-(4-((2-oxo-1,2-dihydroquinolin-7-yl)oxy)butyl)piperazin-1-ium-1-yl)methyl ((((2-ethoxyethoxy)carbonyl)oxy)methyl) phosphate] are -7%, 0 nM and 130 nM.
Turning to `O=c1ccc2ccc(OCCCC[N+]3(COP(=O)([O-])OCCN4CCC(F)(F)CC4)CCN(c4cccc5sccc45)CC3)cc2[nH]1` [EX 119, (4-(benzo[b]thiophen-4-yl)-1-(4-((2-oxo-1,2-dihydroquinolin-7-yl)oxy)butyl)piperazin-1-ium-1-yl)methyl (2-(4,4-difluoropiperidin-1-yl)ethyl) phosphate], the cytotoxicity at 24 h, 300 µM in data set [1] came out at 2%. In data set [2], the “Concentration of brexpiprazole formed” value is 0 nM and the “Concentration of evaluation compound decreased” value was 140 nM.
In the same order, the values of `CC(C)OC(=O)[C@@H](C)OP(=O)([O-])OC[N+]1(CCCCOc2ccc3ccc(=O)[nH]c3c2)CCN(c2cccc3sccc23)CC1` [EX 105, (R)-(4-(benzo[b]thiophen-4-yl)-1-(4-((2-oxo-1,2-dihydroquinolin-7-yl)oxy)butyl)piperazin-1-ium-1-yl)methyl (1-isopropoxy-1-oxopropan-2-yl) phosphate] are -6%, 0 nM and 50 nM.
In the case of `O=c1ccc2ccc(OCCCC[N+]3(COP(=O)([O-])OCCCOc4ccccc4)CCN(c4cccc5sccc45)CC3)cc2[nH]1` [EX 84, 4-(benzo[b]thiophen-4-yl)-1-(4-((2-oxo-1,2-dihydroquinolin-7-yl)oxy)butyl)piperazin-1-ium-1-yl)methyl (3-phenoxypropyl) phosphate], the cytotoxicity at 24 h, 300 µM in data set [1] stood at 1%. Further, in data set [2], the “Concentration of brexpiprazole formed” value was 0 nM and the “Concentration of evaluation compound decreased” value came out at 10 nM.
The matching figures for `CCCCCCCC(=O)OC(C)OP(=O)([O-])OC[N+]1(CCCCOc2ccc3ccc(=O)[nH]c3c2)CCN(c2cccc3sccc23)CC1` (stereo not drawn) [EX 26, (4-(benzo[b]thiophen-4-yl)-1-(4-((2-oxo-1,2-dihydroquinolin-7-yl)oxy)butyl)piperazin-1-ium-1-yl)methyl (1-(octanoyloxy)ethyl) phosphate]: -5%, 0 nM and 50 nM.
In the same order, the values of `COCC(COC)OP(=O)([O-])OC[N+]1(CCCCOc2ccc3ccc(=O)[nH]c3c2)CCN(c2cccc3sccc23)CC1` [EX 56, (4-(benzo[b]thiophen-4-yl)-1-(4-((2-oxo-1,2-dihydroquinolin-7-yl)oxy)butyl)piperazin-1-ium-1-yl)methyl (1,3-dimethoxypropan-2-yl) phosphate] are -6%, 0 nM and 40 nM.
In the same order, the values of `CC(C)OC(=O)[C@H](C)NP(=O)([O-])OC[N+]1(CCCCOc2ccc3ccc(=O)[nH]c3c2)CCN(c2cccc3sccc23)CC1` [EX 159, (4-(benzo[b]thiophen-4-yl)-1-(4-((2-oxo-1,2-dihydroquinolin-7-yl)oxy)butyl)piperazin-1-ium-1-yl)methyl (S)-(1-isopropoxy-1-oxopropan-2-yl)phosphoramidate] are -1%, 0 nM and 60 nM.
As to `CC(=O)Oc1ccccc1C(=O)OCOP(=O)([O-])OC[N+]1(CCCCOc2ccc3ccc(=O)[nH]c3c2)CCN(c2cccc3sccc23)CC1` [EX 80, (2-acetoxybenzoyl)oxy)methyl ((4-(benzo[b]thiophen-4-yl)-1-(4-((2-oxo-1,2-dihydroquinolin-7-yl)oxy)butyl)piperazin-1-ium-1-yl)methyl) phosphate], the cytotoxicity at 24 h, 300 µM in data set [1] was determined as 7%. Further, in data set [2], the “Concentration of brexpiprazole formed” value amounted to 0 nM and the “Concentration of evaluation compound decreased” value was determined as 170 nM.
In the same order, the values of `CC(C)COP(=O)([O-])OC[N+]1(CCCCOc2ccc3ccc(=O)[nH]c3c2)CCN(c2cccc3sccc23)CC1` [EX 90, (4-(benzo[b]thiophen-4-yl)-1-(4-(2-oxo-1,2-dihydroquinolin-7-yl)oxy)butyl)piperazin-1-ium-1-yl)methyl isobutyl phosphate] are -6%, 0 nM and -30 nM.
The matching figures for `CCC(=O)OCOP(=O)([O-])OC[N+]1(CCCCOc2ccc3ccc(=O)[nH]c3c2)CCN(c2cccc3sccc23)CC1` [EX 120, (4-(benzo[b]thiophen-4-yl)-1-(4-((2-oxo-1,2-dihydroquinolin-7-yl)oxy)butyl)piperazin-1-ium-1-yl)methyl ((propionyloxy)methyl) phosphate]: 13%, 0 nM and 50 nM.
The matching figures for `O=C(CCCCCO)OCOP(=O)([O-])OC[N+]1(CCCCOc2ccc3ccc(=O)[nH]c3c2)CCN(c2cccc3sccc23)CC1` [EX 126, (4-(benzo[b]thiophen-4-yl)-1-(4-((2-oxo-1,2-dihydroquinolin-7-yl)oxy)butyl)piperazin-1-ium-1-yl)methyl (6-hydroxyhexanoyl)oxy)methyl) phosphate]: -7%, 0 nM and 160 nM.
`O=c1ccc2ccc(OCCCC[N+]3(COP(=O)([O-])OCCCCBr)CCN(c4cccc5sccc45)CC3)cc2[nH]1` [EX 62, (4-(benzo[b]thiophen-4-yl)-1-(4-((2-oxo-1,2-dihydroquinolin-7-yl)oxy)butyl)piperazin-1-ium-1-yl)methyl (4-bromobutyl) phosphate]: the cytotoxicity at 24 h, 300 µM in data set [1] amounted to 3%. Besides, in data set [2], the “Concentration of brexpiprazole formed” value came out at 0 nM and the “Concentration of evaluation compound decreased” value came to 180 nM.
In the same order, the values of `CCOCCOCCOP(=O)([O-])OC[N+]1(CCCCOc2ccc3ccc(=O)[nH]c3c2)CCN(c2cccc3sccc23)CC1` [EX 98, (4-(benzo[b]thiophen-4-yl)-1-(4-((2-oxo-1,2-dihydroquinolin-7-yl)oxy)butyl)piperazin-1-ium-1-yl)methyl (2-(2-ethoxyethoxy)ethyl) phosphate] are -8%, 0 nM and -20 nM.
In the same order, the values of `CC(C)C(=O)OCOP(=O)([O-])OC[N+]1(CCCCOc2ccc3ccc(=O)[nH]c3c2)CCN(c2cccc3sccc23)CC1` [EX 24, (4-(benzo[b]thiophen-4-yl)-1-(4-((2-oxo-1,2-dihydroquinolin-7-yl)oxy)butyl)piperazin-1-ium-1-yl)methyl ((isobutyryloxy)methyl) phosphate] are 10%, 0 nM and -110 nM.
